{
  "source": "patent US11324698B2",
  "about": "“Sterically stabilized carrier for aerosol therapeutics, compositions and methods for treating the respiratory tract of a mammal” (VGSK Technologies, Inc., priority 2003, dated 2022)",
  "key": {"sensitized mice": {"system": "sensitized mice", "assay": "Preliminary dose-response study of daily nebulized BUD in sensitized mice", "type": "in vivo", "conditions": "daily nebulization", "procedure": "The dose of BUD chosen was based on preliminary dose-response studies with 5 to 50 μg of BUD as follows.\nEach day, 5, 10, 15, 20 or 50 μg of BUD was administered via nebulization to groups of sensitized mice, and the dose-dependent effects on the inflammatory parameters were evaluated."}, "[1]": {"conditions": "BUD alone; cited from earlier work"}},
  "data": [
    {"smiles": "CCCC1O[C@@H]2C[C@H]3[C@@H]4CCC5=CC(=O)C=C[C@]5(C)[C@H]4[C@@H](O)C[C@]3(C)[C@]2(C(=O)CO)O1", "note": "(stereo partly drawn) [Daily BUD, budesonide]", "values": [
      {"measurement": "toxicity to the spleen, liver, bone morrow or gastrointestinal tract", "setting": "sensitized mice; 20 μg/ml dose of BUD, histopathologic examination", "value": "without evidence of toxicity"},
      {"measurement": "granulomas or abnormalities in tissues", "setting": "sensitized mice; preliminary dose-response study", "value": "no granulomas or abnormalities in any of the tissues evaluated"},
      {"measurement": "effective life in the lungs", "setting": "[1]", "value": "no more than one day"}
    ]}
  ]
}
